Data: patent US20110130285A1, “COMPOSITION FOR PROMOTING ROOT NODULE FORMATION OF PLANTS AND A METHOD FOR PROMOTING ROOT NODULE FORMATION OF PLANTS” (priority 2009, published 2011)

What was measured:
plant roots = details: applied to soil or hydroponic water; leaf vegetables, fruit vegetables, root vegetables, flowers and fruit trees (Japanese Patent No. 2927269); cited from earlier work
Soybean (Sachiyutaka) [1] = experiment: Inosine applied to soybean by foliar spray, soil inoculated with Bradyrhizobium japonicum (Example 3); assay type: in vivo; details: 32 days after seeding; for Dry weight of aboveground part / Dry weight of underground part: foliar spray, table prints Inosine (ppm) 2, text 10 ppm, relative value, distilled water group taken as 100
Protocol: Soybean (Sachiyutaka) was seeded in 0.7 kg of soil (marketed black soil, moisture content: 35%) contained in each of pots. Calcium superphosphate and potassium sulfate were added as fertilizers in the amounts of 28 mg/pot, in terms of P2O5 and K2O, respectively. As root nodule bacterium, “Mame-Zo” (containing a soybean root nodule bacterium, Bradyrhizobium japonicum, Tokachi Federation of Agricultural Cooperative Associations, http://www.nokyoren.or.jp/material.html) was added to the soil at a root nodule bacterium concentration of 10^4 cfu/cm^3 of soil. The treatment groups included the distilled water group and the 10 ppm inosine solution group. One individual showing good growth before development of a primary leaf was selected from each pot, and five individuals were used for each treatment group. Either distilled water or the inosine solution in a volume of 5 ml was applied by foliar spray, 10, 14 and 19 days after the seeding. To the distilled water and the inosine solution, a spreading composition (Approach BI, Kao Corp., “Approach” is a registered trade name of Kao Corp.) was added at a concentration of 0.1 v/v %. The spray amount of inosine given as a one-time application was 10 g/ha in the 10 ppm inosine solution group. Thirty-two days after the seeding, the number of root nodules (FIG. 5), the dry weight of root nodules (FIG. 6), the dry weight of aboveground parts, and the dry weight of underground parts (Table 2) were measured. The dry weight of root nodules, the dry weight of aboveground parts, and the dry weight of underground parts were indicated with relative values based on the values of the distilled water group, which were taken as 100. The application of the 10 ppm inosine solution increased all of the number of root nodules, the dry weight of root nodules, the dry weight of aboveground parts and the dry weight of underground parts.

Soybean (Sachiyutaka) [2] = experiment: Inosine applied by irrigation into soybean-growing black soil (Example 2); assay type: in vivo; details: 34 days after seeding; for Dry weight of aboveground part / Dry weight of underground part: 2 ppm inosine, irrigation, relative value, distilled water group taken as 100
Protocol: Soybean (Sachiyutaka) was seeded in 1 kg of soil (marketed black soil, moisture content: 35%) contained in each of the pots. Calcium superphosphate and potassium sulfate were added as fertilizers in the amounts of 40 mg/pot, in terms of P2O5 and K2O, respectively. The treatment groups included the distilled water group and the 2 ppm inosine solution group. One individual showing good growth before development of a primary leaf was selected from each pot, and five individuals were used for each treatment group. Either the distilled water or the inosine solution in a volume of 250 ml was applied to the soil in the pot by irrigation, 10, 14 and 19 days after the seeding. The inosine concentration in the soil given as a one-time application was 0.5 ppm, which was equivalent to 325 g/ha, in the 2 ppm solution group. Thirty-four days after the seeding, the number of root nodules (FIG. 3), the dry weight of root nodules (FIG. 4), the dry weight of aboveground parts, and the dry weight of underground parts (Table 1) were measured. The dry weight of root nodules, the dry weight of aboveground parts, and the dry weight of underground parts were indicated with relative values based on the values of the distilled water group, which were taken as 100. The application of the 2 ppm inosine solution increased all of the number of root nodules, the dry weight of root nodules, the dry weight of aboveground parts and the dry weight of underground parts.

[3] = tested on: soybean (Tanba-kuro, Chusei-hikari-kuro, Sachiyutaka); experiment: Inosine sprayed on soil surface: root nodule formation and growth of soybean (Example 1); assay type: in vivo; details: 2 ppm and 20 ppm inosine solution, 250 ml sprayed on soil surface 7, 10 and 15 days after seeding, measured 20 days after seeding, all varieties Tanba-kuro, vs distilled water
Text: Various varieties of soybeans (black soybeans: Tanba-kuro and Chusei-hikari-kuro, white soybean: Sachiyutaka) were each seeded in 0.6 L of soil (marketed vermiculite, fertilizer was not added) contained in each of No. 4 pots (diameter: 12 cm). For each variety, 7 individuals showing good growth before development of primary leaf were selected per pot. Seven individuals were used for each of the following treatment groups.
2. 2 ppm Inosine solution group
3. 20 ppm Inosine solution group
4. 100 ppm Inosine solution group
Each solution in a volume of 250 ml was splayed on the soil surface in the pot, 7, 10 and 15 days after the seeding. The inosine concentrations in the soil given as a one-time application were 0.83 ppm for the 2 ppm solution group, 8.3 ppm for the 20 ppm solution group, and 41.7 ppm for the 100 ppm solution group, which were equivalent to 442 g/ha, 4,425 g/ha, and 22.1 kg/ha, respectively. The inosine solutions were prepared by diluting a 2% inosine solution (Ikuou, Shoko Agri Co., Ltd., containing 0.52% KOH as pH modifier in order to promote dissolution of inosine) with distilled water.
Twenty days after the seeding, the number of root nodules (FIG. 1) and the dry weight of aboveground parts (FIG. 2) were measured.

Soybean (Sachiyutaka) [4] = experiment: Inosine applied by irrigation to soybean-growing vermiculite, low and high soil nutrient (Example 4); assay type: in vivo; details: 2 ppm and 20 ppm inosine solutions, irrigation 10, 17 and 25 days after seeding; 33 days after seeding; same soil fertilizer condition (low or high soil nutrient); vs distilled water groups
Protocol: Soybean (Sachiyutaka) was transplanted to 1.4 L of soil (vermiculite, moisture content: 50%) contained in each of pots (diameter: 15 cm). The treatment groups included the distilled water groups (Groups 1 and 4) and the inosine application groups (Groups 2, 3, 5 and 6), in which 2 ppm and 20 ppm inosine solutions were applied (Ikuou [Shoko Agri Co., Ltd.] was diluted with distilled water and applied), as shown in Table 3. The distilled water groups and the inosine application groups both include a group in which calcium superphosphate and potassium sulfate were added as fertilizers in amounts of 40 mg/pot in terms of P2O5 and K2O, respectively, and a group in which an organic fertilizer (“Hanasaku Hiryo (1.5-9-4.5)”, Tosho Co., Ltd.) was added in an amount of 2 g/pot (N:P2O5:K2O=30:180:90 mg/pot). The root nodule bacterium (“Mame-Zo”, Tokachi Federation of Agricultural Cooperative Associations) was added at a concentration of 4×10^4 cfu/cm^3 of soil. One individual showing good growth before development of a primary leaf was selected from each pot, and five individuals were used for measurement of each treatment group. Either distilled water or each of the inosine solutions in a volume of 250 ml was applied by irrigation, 10, 17 and 25 days after the seeding. The inosine concentrations in the soil given as a one-time application were 0.36 ppm for the 2 ppm solution groups, and 3.6 ppm for the 20 ppm solution groups, which were equivalent to 282 g/ha and 2,825 g/ha, respectively. Under the low nutrient soil condition (Groups 1 to 3), etiolation of the leaves was observed and considered to be due to deficiency of trace components. Accordingly, a solution of the composition shown in Table 4 was applied in a volume of 100 ml/pot by irrigation, 20 days and 27 days after the transplantation of the soybean. Even in this case, the nutrient concentration was lower than that of the high soil nutrient groups (Groups 4 to 6). [table] Thirty-three days after the seeding, the number of root nodules (FIG. 7), the dry weight of root nodules (FIG. 8), the dry weight of aboveground parts (FIG. 9), and the dry weight of underground parts (FIG. 10) were measured. Under the same soil fertilizer condition, the applications of the 2 ppm and 20 ppm inosine solutions both increased all of the number of root nodules, the dry weight of root nodules, the dry weight of aboveground parts and the dry weight of underground parts, as compared with the distilled water groups (0 ppm groups).

[5] = 10 ppm inosine solution, 5 ml foliar spray 10, 14 and 19 days after seeding, vs distilled water group
[6] = 2 ppm inosine solution, irrigation 10, 14 and 19 days after seeding, vs distilled water group

Which results are given for `OC[C@H]1O[C@@H](n2cnc3c(O)ncnc32)[C@H](O)[C@@H]1O` [Inosine, inosine]?
growth of plant roots (plant roots): promote the growth of plant roots; dry weight of root nodules (Soybean (Sachiyutaka) [1]; [5]): increased; number of root nodules (Soybean (Sachiyutaka) [1]; [5]): increased; Dry weight of aboveground part (Soybean (Sachiyutaka) [1]): 122.0; Dry weight of underground part (Soybean (Sachiyutaka) [1]): 111.9; Dry weight of aboveground part (Soybean (Sachiyutaka) [1]; listed as inosine): increased; Dry weight of underground part (Soybean (Sachiyutaka) [1]; listed as inosine): increased; dry weight of root nodules (Soybean (Sachiyutaka) [2]; [6]): increased; number of root nodules (Soybean (Sachiyutaka) [2]; [6]): increased; Dry weight of aboveground part (Soybean (Sachiyutaka) [2]): 105.1; Dry weight of underground part (Soybean (Sachiyutaka) [2]): 107.2; Dry weight of aboveground part (Soybean (Sachiyutaka) [2]; listed as inosine): increased; Dry weight of underground part (Soybean (Sachiyutaka) [2]; listed as inosine): increased; dry weight of aboveground parts [3]: clearly increased; number of root nodules [3]: clearly increased; dry weight of aboveground parts (Soybean (Sachiyutaka) [4]): increased; dry weight of root nodules (Soybean (Sachiyutaka) [4]): increased; dry weight of underground parts (Soybean (Sachiyutaka) [4]): increased; number of root nodules (Soybean (Sachiyutaka) [4]): increased
